Series [1] deals with adrenal cortex. Description: Induced protection of adrenal against 7,12-DMBA. Format: in vivo, rat.
For series [2], the system named is lactic dehydrogenase. As to the kind of experiment: Lactic dehydrogenase level in liver. Format: in vivo, rat. To be noted: 3-MC 2.5 mg intravenous; Fig. 1.
The test system of series [3] is adrenal cortex. Conditions: cited from earlier work.
Series [4] has as its system menadione reductase (EC 1.6.5.2). Description: Induction of menadione reductase in tissues. Format: in vivo, rat. Conditions: for Hepatic menadione reductase: measured at 48 hours.
Series [5] is described as follows: Solubility of hydrocarbons in sesame oil. Conditions: room temperature; approximately.
In series [6] the test system is acid-insoluble residue (DNA) of liver. To be noted: 7,12-DMBA 5 mg i.v. at -4 hours; TdRH3 at 0 hours; liver at +20 hours; Fig. 3.
Series [7] has as its system deoxyribonucleic acid of adrenal. Format: in vivo, rat. Conditions: Table VII.
Series [8] has as its system adrenal cortex. As to the kind of experiment: Adrenal damage.
The test system of series [9] is adrenal cortex. To be noted: cited from earlier work. The source holds these as a separate data set.
Series [10] in a line: Survival after a single feeding. To be noted: 30 mg, animals invariably succumbed.
The mark [11] stands for this setting: 3-MC 2.5 mg i.v. on day 0 and day 1, tissues day 2, eight rats.
Where [12] appears, read: rats bearing mammary cancers, fed 3-MC 10 mg, day 1, vs rats without 3-MC.
[13] abbreviates: 7,12-DMBA oral 10 mg at -48 hrs.
Setting [14] is: 7,12-DMBA oral 10 mg at -48 hrs, 7,12-DMBA 5 mg i.v. at -4 hrs.

Read-outs that look alike come from different tables or passages of the source.

With `Cc1ccc2cc3c(ccc4ccccc43)c3c2c1CC3` [3-MC, 3-Methylcholanthrene], in series [1] (3-MC 0.5 mg on day -1 by feeding or injection in muscle or in vein), the Adrenal protection result is reported as “complete adrenal protection”. The “Duration of adrenal protection” value came out at 2 days in [1] (3-MC 1 mg i.v., apoplexy when 7,12-DMBA injected on day 3); 6 days in series [1] (3-MC 5 mg i.v., apoplexy when 7,12-DMBA injected on day 8); 2 days in series [1] (3-MC small dose (2 mg) i.v., Discussion). The Adrenal status result in series [1] (3-MC 2, 5, or 10 mg i.v. in the same emulsion with 7,12-DMBA 5 mg (simultaneous)) is recorded as “adrenal apoplexy in all of the animals”; in series [1] (Table IV, 3-MC 0.5 mg i.v. at -1 hr before 7,12-DMBA 5 mg i.v.) it was “+”; in series [1] (Table IV, 3-MC 0.5 mg i.v. at -2 hrs before 7,12-DMBA 5 mg i.v.) it was “+”; in series [1] (Table IV, 3-MC 0.5 mg i.v. at -3 hrs before 7,12-DMBA 5 mg i.v.) it was 0; in series [1] (Table IV, 3-MC 0.5 mg i.v. at -4 hrs before 7,12-DMBA 5 mg i.v.), 0; in series [1] (Table IV, 3-MC 1 mg i.v. at -1 hr before 7,12-DMBA 5 mg i.v.) it was “+”. In addition, the Adrenal status result is “+” in [1] (Table IV, 3-MC 1 mg i.v. at -2 hrs before 7,12-DMBA 5 mg i.v.); 0 in series [1] (Table IV, 3-MC 1 mg i.v. at -3 hrs before 7,12-DMBA 5 mg i.v.); 0 in series [1] (Table IV, 3-MC 1 mg i.v. at -4 hrs before 7,12-DMBA 5 mg i.v.); “+” in series [1] (Table IV, 3-MC 2 mg i.v. at -1 hr before 7,12-DMBA 5 mg i.v.); “+” in series [1] (Table IV, 3-MC 2 mg i.v. at -2 hrs before 7,12-DMBA 5 mg i.v.); 0 in [1] (Table IV, 3-MC 2 mg i.v. at -3 hrs before 7,12-DMBA 5 mg i.v.). Moreover, the Adrenal status in series [1] (Table IV, 3-MC 2 mg i.v. at -4 hrs before 7,12-DMBA 5 mg i.v.) is 0; in series [1] (Table IV, 3-MC 2.5 mg i.v. at -1 hr before 7,12-DMBA 5 mg i.v.) it was “+”; in [1] (Table IV, 3-MC 2.5 mg i.v. at -2 hrs before 7,12-DMBA 5 mg i.v.), “+”; in series [1] (Table IV, 3-MC 2.5 mg i.v. at -3 hrs before 7,12-DMBA 5 mg i.v.), “+”; in series [1] (Table IV, 3-MC 2.5 mg i.v. at -4 hrs before 7,12-DMBA 5 mg i.v.) it was 0; in series [1] (Table IV, 3-MC 5 mg i.v. at -1 hr before 7,12-DMBA 5 mg i.v.), “+”. Also, the Adrenal status entry in series [1] (Table IV, 3-MC 5 mg i.v. at -2 hrs before 7,12-DMBA 5 mg i.v.) is “+”; in series [1] (Table IV, 3-MC 5 mg i.v. at -3 hrs before 7,12-DMBA 5 mg i.v.), “+”; in series [1] (Table IV, 3-MC 5 mg i.v. at -4 hrs before 7,12-DMBA 5 mg i.v.), “+”; in series [1] (Table IV, 3-MC 10 mg i.v. at -1 hr before 7,12-DMBA 5 mg i.v.), “+”; in [1] (Table IV, 3-MC 10 mg i.v. at -2 hrs before 7,12-DMBA 5 mg i.v.), “+”; in [1] (Table IV, 3-MC 10 mg i.v. at -3 hrs before 7,12-DMBA 5 mg i.v.), “+”. The Adrenal status entry in series [1] (Table IV, 3-MC 10 mg i.v. at -4 hrs before 7,12-DMBA 5 mg i.v.) is reported as “+”. The “Change in concentration of lactic dehydrogenase in liver” value in series [2] is “no significantchange”. The “Prevention of adrenal injury by 7,12-DMBA” value in [3] is recorded as “prevented adrenal injury”. The Hepatic menadione reductase in series [4] (3-MC 2.5 mg i.v. at 0 hours, lipide at 24 hours, Fig. 5) is recorded as 276 per cent of controls; in series [4] (sequence 3-MC 2.5 mg + 3-MC 2.5 mg i.v. at 0 and 24 hours), 387 per cent of controls. For the same compound, the “Increase of menadione reductase in adrenal with respect to untreated controls” value in [4] (setting [11]) was 159 per cent. Besides, in [4] (setting [11]), the “Increase of menadione reductase in lung with respect to untreated controls” value came out at 164 per cent. In addition, the “Time of significant rise in menadione reductase in liver” value in [4] (3-MC 2.5 mg i.v. only, Fig. 4) was 4 h. Moreover, the “Time of first rise of menadione reductase in liver” value in series [4] (3-MC 2.5 mg intravenous, Fig. 1) worked out at 3 h. In addition, the “Time of first increase of menadione reductase” value in series [4] (3-MC large dose (5 mg) i.v., Discussion) was found to be 4 h. The “Increase of menadione reductase in liver” value in series [4] (setting [12]) is reported as “+224 per cent”. In addition, the “Increase of menadione reductase in mammary cancer” value in series [4] (setting [12]) is listed as “+275 per cent”. Besides, the “Increase of menadione reductase in mammary gland” value in series [4] (setting [12]) is on record as “+214 per cent”. Besides, the “Increase of menadione reductase concentration in liver” value in [4] (single feeding of 3-MC 0.5 mg, 24 hours, Fig. 2) was “twofold”. The “Increase of menadione reductase level in lung” value in series [4] (single feeding of 3-MC 1 mg, 24 hours, Fig. 2) came to 150 per cent. For the same compound, the “Solubility w/v in sesame oil” value in series [5] is given as around 1.25 per cent.

For `Cc1c2ccccc2c(C)c2c1ccc1ccccc12` [7,12-DMBA, 7,12-Dimethylbenz[a]anthracene], the Rats protected in [1] (1 mg by intravenous injection on day -1, group of 8) is listed as 5. The Adrenal protection result is reported as “no amount was found which induced complete protection” in series [1] (0.5 to 1.5 mg injected intravenously as protector on day -1) and “protected adrenals completely” in series [1] (single feeding 2 mg to 10 mg, 1 day prior to 7,12-DMBA 5 mg i.v.). Moreover, the “Incorporation of tritium into acid-insoluble residue of liver” value in series [6] is reported as 56 per cent of control values. Also, in [3] (single preliminary feeding), the “Protection of adrenal from damage by a large dose of 7,12-DMBA” value is “protects”. Besides, the “Tritium content of adrenal, per cent of controls” value in series [7] (7,12-DMBA 5 mg i.v. at -4 hrs) was 40 per cent; in series [7] (setting [13]) it was 91 per cent; in [7] (setting [14]) it was 48 per cent. For the same compound, the entries for the “Tritium content of adrenal” value in series [7] (setting [13]) and in [7] (setting [14]) were 0.120 ~clgm and 0.064 ~clgm, respectively. In series [8] (5 mg given by vein), the Adrenal hemorrhage entry is reported as “invariably caused adrenal hemorrhage”. Moreover, the Adrenal apoplexy in series [8] (Table I, 7,12-DMBA 30 mg/kg i.v., age 30 days, adrenals 72 hours later, 8 rats) is 0; in series [8] (Table I, 7,12-DMBA 30 mg/kg i.v., age 35 days, 8 rats), 6/8; in [8] (Table I, 7,12-DMBA 30 mg/kg i.v., age 40 days, 8 rats) it was 8/8; in [8] (Table I, 7,12-DMBA 30 mg/kg i.v., age 42 days, 8 rats), 8/8; in [8] (Table I, 7,12-DMBA 30 mg/kg i.v., age 45 days, 8 rats) it was 8/8; in [8] (feeding of 5 mg) it was “failed to induce apoplexy”. For the same compound, the Adrenal apoplexy entry in series [9] (single feeding 30 mg, adult rats) was “induces adrenal apoplexy in all adult rats”. In [4] (7,12-DMBA 5 mg i.v. at 0 hours, lipide at 24 hours, Fig. 5), the Hepatic menadione reductase was 269 per cent of controls. The “Time of first rise in hepatic menadione reductase” value in series [4] (7,12-DMBA 5 mg intravenous, Fig. 3) amounted to 3 h. Also, the “Time of first elevation in hepatic menadione reductase” value in [4] (7,12-DMBA 5 mg oral, Fig. 3) stood at 8 h. Also, the “Solubility w/v in sesame oil” value in series [5] is given as around 10 per cent. The “Intravenous amount that itself causes adrenal necrosis” value in series [9] (intravenous) is recorded as at least 2 mg.

For `CN(C)c1ccc(C=Cc2ccccc2)cc1` [4-dimethylaminostilbene], in series [8] (feeding, 30 mg), the Adrenal necrosis entry is “did not induce necrosis”. Moreover, in series [10], the Time to death is at most 5 days.
